For two compounds, IC50 results are on record in article PMC7948515 (ACS chemical neuroscience, 2020).

In the test the target is T1, horse spleen apoferritin (HSAF) (Equus caballus, UniProt P02791).
T1 sequence (P02791 2-175): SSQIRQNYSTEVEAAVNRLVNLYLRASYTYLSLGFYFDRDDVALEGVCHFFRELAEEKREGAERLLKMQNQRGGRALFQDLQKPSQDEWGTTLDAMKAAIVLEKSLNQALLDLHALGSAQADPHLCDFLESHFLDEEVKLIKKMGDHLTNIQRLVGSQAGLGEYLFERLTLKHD
Nature of the test: 1-AMA fluorescence displacement. Type of test: binding.

Each structure is given as a SMILES string.

`CC(C)c1cccc(C(C)C)c1F` [fropofol]: the IC50 worked out at 11 µM. In other words, the double-digit micromolar range.

Compound `CC(C)c1cccc(C2(C(F)(F)F)N=N2)c1F` [compound 1, 3-(2-fluoro-3-isopropylphenyl)-3-(trifluoromethyl)-3H-diazirine] came in with an IC50 of 17 µM.
